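Exposure lasted 48 hours, with cells grown in 96-well plates and compounds tested at five concentrations. GI50: concentration for 50% inhibition of growth. TGI is the concentration that stops growth completely.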
What was measured:
Assay in all cases: DTP human tumour cell line panel, 48 h
OVCAR-5 ovarian = system: OVCAR-5 ovarian
OVCAR-8 ovarian = system: OVCAR-8 ovarian
UACC-62 melanoma = system: UACC-62 melanoma
OVCAR-4 ovarian = system: OVCAR-4 ovarian
NCI/ADR-RES ovarian = system: NCI/ADR-RES ovarian
KM12 colon = system: KM12 colon
NCI-H226 lung = system: NCI-H226 lung
BT-549 breast = system: BT-549 breast
MCF7 breast = system: MCF7 breast

SMILES	TGI (OVCAR-5 ovarian)	TGI (OVCAR-8 ovarian)	TGI (UACC-62 melanoma)	TGI (OVCAR-4 ovarian)	TGI (NCI/ADR-RES ovarian)	TGI (KM12 colon)	TGI (NCI-H226 lung)	TGI (BT-549 breast)	TGI (MCF7 breast)	GI50 (OVCAR-5 ovarian)	GI50 (OVCAR-8 ovarian)	GI50 (UACC-62 melanoma)	GI50 (OVCAR-4 ovarian)	GI50 (NCI/ADR-RES ovarian)	GI50 (KM12 colon)	GI50 (NCI-H226 lung)	GI50 (BT-549 breast)	GI50 (MCF7 breast)
Cc1ccc2c(=O)c(-c3n[nH]c(=S)s3)c[nH]c2n1	> 100 µM	> 100 µM	> 100 µM	> 100 µM	> 100 µM	> 100 µM	> 100 µM	> 100 µM	> 100 µM	–	–	–	–	–	–	–	–	–
O=[N+]([O-])c1ccc2ncccc2c1CCc1c([N+](=O)[O-])ccc2ncccc12	> 100 µM	> 100 µM	> 100 µM	> 100 µM	> 100 µM	> 100 µM	> 100 µM	> 100 µM	> 100 µM	–	–	–	–	–	–	–	–	–
CC[C@H](C)C1=C(OC(C)=O)[N@+]2([O-])Oc3ccc(-c4c(OC(C)=O)c(OC(C)=O)c(-c5ccc(OC(C)=O)cc5)c(OC(C)=O)c4OC(C)=O)cc3O[C@]2([C@@H](C)CC)C(=O)N1OC(C)=O	> 50 µM	37.6 µM	17.7 µM	39.6 µM	> 50 µM	> 50 µM	> 50 µM	–	> 50 µM	–	–	–	–	–	–	–	–	–
NCCCC[C@H](N)C(=O)Nc1ccc(-c2nc3ccccc3s2)cc1Cl	17.8 µM	> 43.9 µM	28.5 µM	–	51.8 µM	7.81 µM	4.62 µM	> 42.2 µM	9.01 µM	–	–	–	–	–	–	–	–	–
CC(=O)OCC1OC(N2C(S)=C(C#N)C(c3ccco3)C(C(C)=O)=C2c2ccccc2)C(OC(C)=O)C(OC(C)=O)C1OC(C)=O (centres undefined)	> 100 µM	> 100 µM	> 100 µM	44.8 µM	> 100 µM	> 100 µM	> 100 µM	> 100 µM	> 100 µM	–	–	–	–	–	–	–	–	–
COc1ccc2[nH]c(O)c(/C=c3/cc4c(c(-c5ccc(F)cc5)n3)=Nc3ccccc3-4)c2c1	35.6 µM	5.01 µM	3.2 µM	4.12 µM	5.63 µM	4.46 µM	> 100 µM	3.57 µM	3.32 µM	13.8 µM	2 µM	1.54 µM	1.8 µM	2 µM	1.78 µM	34.2 µM	1.8 µM	1.36 µM
CC1CN=C(c2ccc(COc3ccc(C4=NCC(C)N4)cc3)cc2)N1 (centres undefined)	> 100 µM	> 100 µM	> 100 µM	> 100 µM	> 100 µM	> 100 µM	–	> 100 µM	> 100 µM	–	–	–	–	–	–	–	–	–
CCCCCCCCCCCCCCCCP(=O)([O-])OCC[N+](C)(C)C	21.8 µM	32.7 µM	29.3 µM	34.7 µM	34.7 µM	9.33 µM	40.9 µM	22.6 µM	35.3 µM	–	–	–	–	–	–	–	–	–
COc1ccccc1N=C1SCCN1C(=S)Nc1ccc(S(=O)(=O)/N=C/N(C)C)cc1	> 100 µM	> 100 µM	75.9 µM	> 100 µM	> 100 µM	> 100 µM	> 100 µM	49.8 µM	83.7 µM	–	–	–	–	–	–	–	–	–
C[N+](C)(N)c1nc(N)c(C#N)c(C#N)c1C#N	> 10 µM	> 10 µM	> 10 µM	> 10 µM	> 10 µM	–	> 10 µM	–	> 10 µM	–	–	–	–	–	–	–	–	–
